Molecules are shown by their SMILES. pEC50: −log10 of the molar value.

Experimental findings from patent US6538000B1, “Tricyclic dihydropyrimidine potassium channel openers” (Abbott Laboratories, priority 1999, dated 2003) are described below.

For series [1], the target named is potassium channels (Sus scrofa, UniProt F1SR11). As to the kind of experiment: Functional potassium channel opening activity in isolated bladder strips (field-stimulated twitch). Also on record: species or system Landrace pig. The conditions noted are these: for Emax: pig, read-out: Efficacy (% P1075), Landrace pig bladder strips, maximal efficacy relative to P1075. The protocol: Compounds of the present invention were evaluated for functional potassium channel opening activity using tissue strips obtained from Landrace pig bladders.
Landrace pig bladders were obtained from female Landrace pigs of 9-30 kg. Landrace pigs were euthanized with an intraperitoneal injection of pentobarbital solution, Somlethal®, J. A. Webster Inc., Sterling Mass. The entire bladder was removed and immediately placed into Krebs Ringer bicarbonate solution (composition, mM: NaCl, 120; NaHCO3, 20; dextrose, 11; KCl, 4.7; CaCl2, 2.5; MgSO4, 1.5; KH2PO4, 1.2; K2EDTA, 0.01, equilibrated with 5% CO2/95% O2 pH 7.4 at 37° C.). Propranolol (0.004 mM) was included in all of the assays to block β-adrenoceptors. The trigonal and dome portions were discarded. Strips 3-5 mm wide and 20 mm long were prepared from the remaining tissue cut in a circular fashion. The mucosal layer was removed. One end was fixed to a stationary glass rod and the other to a Grass FT03 transducer at a basal preload of 1.0 gram. Two parallel platinum electrodes were included in the stationary glass rod to provide field stimulation of 0.05 Hz, 0.5 milli-seconds at 20 volts. This low frequency stimulation produced a stable twitch response of 100-500 centigrams. Tissues were allowed to equilibrate for at least 60 minutes and primed with 80 mM KCl. A control concentration response curve (cumulative) was generated for each tissue using the potassium channel opener P1075 as the control agonist. […] After a 60 minute rinsing period, a concentration response curve (cumulative) was generated for the test agonist in the same fashion as that used for the control agonist P1075. The maximal efficacy of each compounds (expressed as % relative to P1075) is reported. […] Agonist potencies were also expressed as an index relative to P1075. The index was calculated by dividing the ED50 for P1075 by the ED50 for the test agonist in a given tissue. […]

In series [2] the target is potassium channels (Cavia porcellus, UniProt A0A286XYR9). The experiment in a line: Membrane hyperpolarization (MHP) assay, DiBAC(4)3 FLIPR, primary cultured guinea-pig urinary bladder (GPB) cells. Format: cell-based. The protocol:
Compounds were evaluated for potassium channel opening activity using primary cultured guinea-pig urinary bladder (GPB) cells.
For the preparation of urinary bladder smooth muscle cells, urinary bladders were removed from male guinea-pigs (Hartley, Charles River, Wilmington, Mass.) weighing 300-400 g and placed in ice-cold Ca^2+-free Krebs solution (Composition, mM: KCl, 2.7; KH2PO4, 1.5; NaCl, 75; Na2HPO4, 9.6; Na2HPO4.7H2O, 8; MgSO4, 2; glucose, 5; HEPES, 10; pH 7.4). Cells were isolated by enzymatic dissociation as previously described with minor modifications in (Klockner, U. and Isenberg, G., Pflugers Arch. 1985, 405, 329-339), hereby incorporated by reference. […]
Functional activity at potassium channels was measured by evaluating changes in membrane potential using the bis-oxonol dye DiBAC(4)3 (Molecular Probes) in a 96-well cell-based kinetic assay system, Fluorescent Imaging Plate Reader (FLIPR) (K. S. Schroeder et al., J. Biomed. Screen., v. 1 pp. 75-81 (1996)), hereby incorporated by reference. […] With increasing membrane potential (for example, K^+ depolarization), the probe further partitions into the cell; this is measured as an increase in fluorescence due to dye interaction with intracellular lipids and proteins. Conversely, decreasing membrane potential (hyperpolarization by potassium channel openers) evokes a decrease in fluorescence. […]

Chain of potassium channels (Cavia porcellus, UniProt A0A286XYR9) (A0A286XYR9 1-1546): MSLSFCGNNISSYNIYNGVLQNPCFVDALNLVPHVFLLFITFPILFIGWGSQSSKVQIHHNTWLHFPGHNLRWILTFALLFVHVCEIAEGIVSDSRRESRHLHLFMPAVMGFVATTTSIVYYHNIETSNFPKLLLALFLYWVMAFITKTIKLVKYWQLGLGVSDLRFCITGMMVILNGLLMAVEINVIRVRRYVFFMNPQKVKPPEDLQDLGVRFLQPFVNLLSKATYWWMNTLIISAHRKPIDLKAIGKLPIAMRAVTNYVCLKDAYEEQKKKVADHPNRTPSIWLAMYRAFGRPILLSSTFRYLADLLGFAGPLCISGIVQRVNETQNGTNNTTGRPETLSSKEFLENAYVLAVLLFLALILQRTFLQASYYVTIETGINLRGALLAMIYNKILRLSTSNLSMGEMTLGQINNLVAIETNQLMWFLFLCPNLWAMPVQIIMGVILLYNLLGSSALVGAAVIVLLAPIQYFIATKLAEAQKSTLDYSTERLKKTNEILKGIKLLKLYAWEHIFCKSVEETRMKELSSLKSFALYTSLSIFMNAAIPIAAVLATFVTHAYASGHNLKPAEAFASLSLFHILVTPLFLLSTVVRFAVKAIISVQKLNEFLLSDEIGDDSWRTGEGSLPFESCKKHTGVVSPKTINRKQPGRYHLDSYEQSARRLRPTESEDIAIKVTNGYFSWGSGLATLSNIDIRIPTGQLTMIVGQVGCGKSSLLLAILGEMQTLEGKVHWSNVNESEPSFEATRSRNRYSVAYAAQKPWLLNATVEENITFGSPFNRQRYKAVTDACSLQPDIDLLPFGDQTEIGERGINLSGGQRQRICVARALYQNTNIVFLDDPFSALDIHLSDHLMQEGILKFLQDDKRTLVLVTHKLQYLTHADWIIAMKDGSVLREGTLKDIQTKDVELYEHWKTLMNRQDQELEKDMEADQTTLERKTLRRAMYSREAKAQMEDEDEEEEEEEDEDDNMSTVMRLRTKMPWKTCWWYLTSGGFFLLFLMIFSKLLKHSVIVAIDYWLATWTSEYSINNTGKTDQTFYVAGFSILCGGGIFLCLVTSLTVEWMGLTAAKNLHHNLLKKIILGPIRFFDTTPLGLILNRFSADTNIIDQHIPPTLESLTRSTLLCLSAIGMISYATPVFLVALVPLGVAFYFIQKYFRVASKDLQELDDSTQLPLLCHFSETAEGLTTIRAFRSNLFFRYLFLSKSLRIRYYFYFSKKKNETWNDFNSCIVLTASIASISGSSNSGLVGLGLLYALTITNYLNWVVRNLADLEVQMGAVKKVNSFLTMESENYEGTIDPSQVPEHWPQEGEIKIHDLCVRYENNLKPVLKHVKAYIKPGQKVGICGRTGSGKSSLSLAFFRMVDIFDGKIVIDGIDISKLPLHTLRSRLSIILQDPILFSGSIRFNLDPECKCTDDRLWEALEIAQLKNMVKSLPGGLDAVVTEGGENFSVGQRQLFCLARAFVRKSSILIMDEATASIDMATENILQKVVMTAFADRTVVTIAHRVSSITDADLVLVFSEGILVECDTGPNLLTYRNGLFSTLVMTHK
Chain of potassium channels (Cavia porcellus, UniProt A0A286XYR9) (Q9JHJ9 whole entry partner): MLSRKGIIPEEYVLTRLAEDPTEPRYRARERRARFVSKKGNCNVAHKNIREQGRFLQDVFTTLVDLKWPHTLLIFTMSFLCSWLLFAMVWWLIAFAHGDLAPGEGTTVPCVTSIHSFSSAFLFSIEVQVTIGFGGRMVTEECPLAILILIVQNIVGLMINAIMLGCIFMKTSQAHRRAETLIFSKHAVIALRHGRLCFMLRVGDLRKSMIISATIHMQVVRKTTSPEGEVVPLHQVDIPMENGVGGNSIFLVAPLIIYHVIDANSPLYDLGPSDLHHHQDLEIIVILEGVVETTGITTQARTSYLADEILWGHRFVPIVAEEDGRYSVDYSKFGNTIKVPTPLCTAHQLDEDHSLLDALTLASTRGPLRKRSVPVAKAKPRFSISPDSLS

With `CCC(C)(C)NC(=NC#N)Nc1cccnc1` [Example P1075, N″-cyano-N-(tert-pentyl)-N′-(3-pyridinyl)guanidine, reference compound], the “effect on stimulated twitch / stimulated contractions of the bladder” value in series [1] (field stimulation 0.05 Hz, 0.5 ms, 20 volts, P1075 10^−9 to 10^−5 M) is reported as “completely eliminated the stimulated twitch”.
For `O=C1CCCC2=C1C(c1ccc(Br)c(F)c1)n1nccc1N2` (stereo not drawn) [Example 1, 9-(4-Bromo-3-fluorophenyl)-5,6,7,9-tetrahydropyrazolo[5,1-b]quinazolin-8(4H)-one], the Emax in series [1] was found to be 96%.
As for `O=C1CCCC2=C1C(c1ccc(Cl)c(Cl)c1)n1ncc(Br)c1N2` (stereo not drawn) [Example 48, 3-Bromo-9-(3,4-dichlorophenyl)-5,6,7,9-tetrahydropyrazolo[5.1-b]quinazolin-8(4H)-one], the “Maximal Response (% P1075)” value in series [2] (maximal steady-state hyperpolarization in GPB cells, normalized to 10 μM P1075 = 100%) amounted to 113 % P1075. The molecule further gave a pEC50 in series [2] (membrane hyperpolarization in GPB cells, concentration that elicits 50% of the maximal response for the test sample) of 7.48.
On to `O=C1CCCC2=C1C(c1ccc(F)c(Br)c1)n1nccc1N2` (single isomer, unassigned; (-)) [Example 15, (−) 9-(3-Bromo-4-fluorophenyl)-5,6,7,9-tetrahydropyrazolo[5,1-b]quinazolin-8(4H)-one], for which the Emax in series [1] worked out at 100%.
The molecule `O=C1CSCC2=C1C(c1ccc(F)c(Br)c1)n1nccc1N2` (stereo not drawn) [Example 2, 9-(3-Bromo-4-fluorophenyl)-5,9-dihydro-4H-pyrazolo[1,5-a]thiopyrano[3,4-d]pyrimidin-8(7H)-one] yielded a melting point of 160 to 163 °C.

What is called pEC50 is the EC50 on a negative log10 scale, so that one unit is a factor of ten. One may read the melting point as the temperature of the solid-liquid transition.
